Laboratory results reported in ChEMBL document CHEMBL2074151, “Molecular identification of a rat novel organic anion transporter moat1, which transports prostaglandin D(2), leukotriene C(4), and taurocholate” (Biochem Biophys Res Commun, 2000).

T1: Solute carrier organic anion transporter family member 2B1 (Rattus norvegicus, UniProt Q9JHI3)
T1 sequence (Q9JHI3 whole entry): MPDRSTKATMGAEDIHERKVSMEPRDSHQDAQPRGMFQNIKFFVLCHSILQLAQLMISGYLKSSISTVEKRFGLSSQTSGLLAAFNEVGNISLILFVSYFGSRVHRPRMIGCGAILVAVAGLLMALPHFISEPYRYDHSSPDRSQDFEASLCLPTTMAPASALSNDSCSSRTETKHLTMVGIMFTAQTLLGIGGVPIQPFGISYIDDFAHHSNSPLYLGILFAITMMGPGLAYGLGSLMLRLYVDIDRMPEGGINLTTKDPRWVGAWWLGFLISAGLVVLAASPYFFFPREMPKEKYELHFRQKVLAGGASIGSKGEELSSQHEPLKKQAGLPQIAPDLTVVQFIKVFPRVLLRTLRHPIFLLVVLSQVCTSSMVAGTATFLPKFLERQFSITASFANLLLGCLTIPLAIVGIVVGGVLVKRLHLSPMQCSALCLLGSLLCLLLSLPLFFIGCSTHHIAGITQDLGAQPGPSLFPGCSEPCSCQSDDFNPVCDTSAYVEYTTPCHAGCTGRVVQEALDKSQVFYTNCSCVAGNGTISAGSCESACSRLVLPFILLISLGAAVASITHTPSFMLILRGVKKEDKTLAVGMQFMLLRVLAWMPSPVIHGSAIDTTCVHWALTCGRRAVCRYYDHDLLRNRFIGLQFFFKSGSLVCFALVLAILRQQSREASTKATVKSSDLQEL


Legend:
[1] = molecular target: T1, Solute carrier organic anion transporter family member 2B1; assay: (§1) TP_TRANSPORTER: uptake in Xenopus laevis oocytes; assay type: functional, cell-based; settings: oocyte
[2] = molecular target: T1, Solute carrier organic anion transporter family member 2B1; assay: TP_TRANSPORTER: inhibition of PGD2 uptake in Xenopus laevis oocytes; assay type: functional, cell-based, Oocyte
[3] = substrate: CCCCC/C=C\C\C=C/C=C/C=C/[C@@H](SC[C@@H](NC(=O)CC[C@H](N)C(=O)O)C(=O)NCC(=O)O)[C@@H](O)CCCC(=O)O; assay: as §1; assay type: functional, cell-based, Oocyte
[4] = substrate: CCCCC[C@H](O)/C=C/[C@H]1C(=O)C[C@H](O)[C@@H]1C/C=C\CCCC(=O)O; assay: as §1; assay type: functional, cell-based, Oocyte

| Molecule | Activity [1] | IC50 [2] [nM] | Km [3] [µM] | Km [4] [µM] |
| --- | --- | --- | --- | --- |
| CCCCC[C@H](O)/C=C/[C@H]1[C@H](O)CC(=O)[C@@H]1CCCCCCC(=O)O [ALPROSTADIL] | substrate [+] | 35.8 |  |  |
| CCCCC[C@H](O)/C=C/[C@H]1[C@H](O)CC(=O)[C@@H]1C/C=C\CCCC(=O)O [DINOPROSTONE] | substrate [+] |  |  |  |
| CCCCC[C@H](O)/C=C/[C@@H]1[C@@H](C/C=C\CCCC(=O)O)[C@@H](O)C[C@H]1O [DINOPROST] | is not a substrate [-] | 287 |  |  |
| CC#CCC(C)[C@H](O)/C=C/[C@@H]1[C@H]2C/C(=C/CCCC(=O)O)C[C@H]2C[C@H]1O (stereo not given in full) [ILOPROST] | substrate [+] |  |  |  |
| C[C@]12CC[C@H](OS(=O)(=O)O)CC1=CC[C@@H]1[C@@H]2CC[C@]2(C)C(=O)CC[C@@H]12 [PRASTERONE SULFURIC ACID] | is not a substrate [-] |  |  |  |
| CCCCC[C@H](O)/C=C/[C@H]1OC(O)C[C@H](O)[C@@H]1C/C=C\CCCC(=O)O (stereo not given in full) [THROMBOXANE B2] | substrate [+] |  |  |  |
| Solute carrier organic anion transporter family member 2B1 (Rattus norvegicus) (protein) MPDRSTKATMGAEDIHERKVSMEPRDSHQDAQPRGMFQNIKFFVLCHSILQLAQLMISGYLKSSISTVEKRFGLSSQTSGLLAAFNEVGNISLILFVSYFGSRVHRPRMIGCGAILVAVAGLLMALPHFISEPYRYDHSSPDRSQDFEASLCLPTTMAPASALSNDSCSSRTETKHLTMVGIMFTAQTLLGIGGVPIQPFGISYIDDFAHHSNSPLYLGILFAITMMGPGLAYGLGSLMLRLYVDIDRMPEGGINLTTKDPRWVGAWWLGFLISAGLVVLAASPYFFFPREMPKEKYELHFRQKVLAGGASIGSKGEELSSQHEPLKKQAGLPQIAPDLTVVQFIKVFPRVLLRTLRHPIFLLVVLSQVCTSSMVAGTATFLPKFLERQFSITASFANLLLGCLTIPLAIVGIVVGGVLVKRLHLSPMQCSALCLLGSLLCLLLSLPLFFIGCSTHHIAGITQDLGAQPGPSLFPGCSEPCSCQSDDFNPVCDTSAYVEYTTPCHAGCTGRVVQEALDKSQVFYTNCSCVAGNGTISAGSCESACSRLVLPFILLISLGAAVASITHTPSFMLILRGVKKEDKTLAVGMQFMLLRVLAWMPSPVIHGSAIDTTCVHWALTCGRRAVCRYYDHDLLRNRFIGLQFFFKSGSLVCFALVLAILRQQSREASTKATVKSSDLQEL |  |  | 3.2 | 0.0355 |
